Patent US20250176599A1, “FLAVOR COMPOSITION AND FOOD AND BEVERAGE” (TAKASAGO INTERNATIONAL CORPORATION, priority 2021, published 2025)

Assays:
[1] = Sensory evaluation of aqueous solution I containing (E)-2-nonenal 1 ppb: off-flavor intensity and masking component intensity; conditions: average panel score
Procedure, shortened: (§1)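 Nootkatone added to degradation-component solutions in ion-exchanged water and scored by eight experienced panelists. Off-flavor rated 0–4 relative to unmasked solution (4) and plain water (0). Masking-component intensity rated on an absolute 0–4 scale.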

[2] = Sensory evaluation of aqueous solution II containing (E)-2-octenal 10 ppb: off-flavor intensity and masking component intensity; conditions: average panel score
Procedure, shortened: as §1

[3] = Sensory evaluation of aqueous solution III containing 1-octen-3-one 1 ppb: off-flavor intensity and masking component intensity; conditions: average panel score
Procedure, shortened: as §1

[4] = Sensory evaluation of aqueous solution IV containing 1,5-octadien-3-one 100 ppt: off-flavor intensity and masking component intensity; conditions: aqueous solution IV, average panel score
Procedure, shortened: as §1

[5] = Sensory evaluation of aqueous solution V containing 1-octen-3-ol 10 ppb: off-flavor intensity and masking component intensity; conditions: average panel score
Procedure, shortened: as §1

[6] = Sensory evaluation of aqueous solution VI containing 1,5-octadien-3-ol 10 ppb: off-flavor intensity and masking component intensity; conditions: aqueous solution VI, average panel score
Procedure, shortened: as §1

[7] = Sensory evaluation of degradation component-added soymilk I ((E)-2-nonenal 5 ppb); conditions: average panel score
Description: (§2) To commercially available soymilk (“Delicious Unadjusted Soymilk” manufactured by Kikkoman Corporation), each degradation component was added to prepare degradation component-added soymilks at the concentrations listed in Table 23. To these degradation component-added soymilks, 1,4-dioxacycloheptadecan-5,17-dione was added at the concentrations listed in Table 23 to confirm the intensity of the off-flavor (masking effect) and the intensity of the masking components (impact on the flavor of the soymilk itself) for each sample.
(§3) Eight experienced panelists were selected to conduct a sensory evaluation similar to that of Example 1. […]

[8] = Sensory evaluation of degradation component-added soymilk II (1-octen-3-ol 500 ppb); conditions: average panel score
Description: as §2, §3

[9] = Overall conclusion of the sensory evaluation across aqueous solutions I to VI
Procedure, shortened: as §1

[10] = Overall conclusion of the sensory evaluation across soymilks I and II
Description: as §2
Eight experienced panelists were selected to conduct a sensory evaluation similar to that of Example 1.
The same method as in Example 20 was used to confirm the intensity of the off-flavor (masking effect) derived from unsaturated fatty acids by α-methyl ionone and the intensity of the masking components (impact on the flavor of the soymilk itself).
The same method as in Example 20 was used to confirm the intensity of the off-flavor (masking effect) derived from unsaturated fatty acids by menthyl 3-hydroxybutyrate and the intensity of the masking components (impact on the flavor of the soymilk itself).

CC(O)CC(=O)OC1CC(C)CCC1C(C)C (stereo not drawn) [menthyl 3-hydroxybutyrate]
Masking Component Intensity ([1]; 1 ppb added): 0.6 | Off-Flavor Intensity ([1]; 1 ppb added): 3.1 | Masking Component Intensity ([1]; 1 ppm added): 1.9 | Off-Flavor Intensity ([1]; 1 ppm added): 2.5 | Masking Component Intensity ([1]; 10 ppb added): 0.9 | Off-Flavor Intensity ([1]; 10 ppb added): 3.0 | Masking Component Intensity ([1]; 10 ppm added): 2.5 | Off-Flavor Intensity ([1]; 10 ppm added): 1.9 | Masking Component Intensity ([1]; 10 ppt added): 0.1 | Off-Flavor Intensity ([1]; 10 ppt added): 3.6 | Masking Component Intensity ([1]; 50 ppm added): 3.5 | Off-Flavor Intensity ([1]; 50 ppm added): 1.4 | Masking Component Intensity ([1]; 100 ppb added): 1.5 | Off-Flavor Intensity ([1]; 100 ppb added): 2.9 | Masking Component Intensity ([1]; 100 ppt added): 0.3 | Off-Flavor Intensity ([1]; 100 ppt added): 3.4 | Masking Component Intensity ([2]; 1 ppb added): 0.6 | Off-Flavor Intensity ([2]; 1 ppb added): 3.0 | Masking Component Intensity ([2]; 1 ppm added): 1.9 | Off-Flavor Intensity ([2]; 1 ppm added): 2.0 | Masking Component Intensity ([2]; 10 ppb added): 0.9 | Off-Flavor Intensity ([2]; 10 ppb added): 2.8 | Masking Component Intensity ([2]; 10 ppm added): 2.1 | Off-Flavor Intensity ([2]; 10 ppm added): 1.9 | Masking Component Intensity ([2]; 10 ppt added): 0.4 | Off-Flavor Intensity ([2]; 10 ppt added): 3.4 | Masking Component Intensity ([2]; 50 ppm added): 3.5 | Off-Flavor Intensity ([2]; 50 ppm added): 1.1 | Masking Component Intensity ([2]; 100 ppb added): 1.4 | Off-Flavor Intensity ([2]; 100 ppb added): 2.3 | Masking Component Intensity ([2]; 100 ppt added): 0.4 | Off-Flavor Intensity ([2]; 100 ppt added): 3.4 | Masking Component Intensity ([3]; 1 ppb added): 0.6 | Off-Flavor Intensity ([3]; 1 ppb added): 3.4 | Masking Component Intensity ([3]; 1 ppm added): 1.8 | Off-Flavor Intensity ([3]; 1 ppm added): 2.4 | Masking Component Intensity ([3]; 10 ppb added): 1.0 | Off-Flavor Intensity ([3]; 10 ppb added): 2.9 | Masking Component Intensity ([3]; 10 ppm added): 2.6 | Off-Flavor Intensity ([3]; 10 ppm added): 2.0 | Masking Component Intensity ([3]; 10 ppt added): 0.3 | Off-Flavor Intensity ([3]; 10 ppt added): 3.6 | Masking Component Intensity ([3]; 50 ppm added): 3.5 | Off-Flavor Intensity ([3]; 50 ppm added): 1.8 | Masking Component Intensity ([3]; 100 ppb added): 1.5 | Off-Flavor Intensity ([3]; 100 ppb added): 2.9 | Masking Component Intensity ([3]; 100 ppt added): 0.3 | Off-Flavor Intensity ([3]; 100 ppt added): 3.6 | Masking Component Intensity ([4]; 1 ppb added): 0.1 | Off-Flavor Intensity ([4]; 1 ppb added): 3.8 | Masking Component Intensity ([4]; 1 ppm added): 1.1 | Off-Flavor Intensity ([4]; 1 ppm added): 3.0 | Masking Component Intensity ([4]; 5 ppm added): 1.8 | Off-Flavor Intensity ([4]; 5 ppm added): 2.5 | Masking Component Intensity ([4]; 10 ppb added): 0.6 | Off-Flavor Intensity ([4]; 10 ppb added): 3.4 | Masking Component Intensity ([4]; 10 ppm added): 2.6 | Off-Flavor Intensity ([4]; 10 ppm added): 2.5 | Masking Component Intensity ([4]; 50 ppm added): 3.1 | Off-Flavor Intensity ([4]; 50 ppm added): 2.0 | Masking Component Intensity ([4]; 100 ppb added): 0.8 | Off-Flavor Intensity ([4]; 100 ppb added): 3.1 | Masking Component Intensity ([4]; 100 ppt added): 0.1 | Off-Flavor Intensity ([4]; 100 ppt added): 3.8 | Masking Component Intensity ([5]; 1 ppb added): 0.4 | Off-Flavor Intensity ([5]; 1 ppb added): 3.3 | Masking Component Intensity ([5]; 1 ppm added): 1.0 | Off-Flavor Intensity ([5]; 1 ppm added): 2.5 | Masking Component Intensity ([5]; 5 ppm added): 1.6 | Off-Flavor Intensity ([5]; 5 ppm added): 2.4 | Masking Component Intensity ([5]; 10 ppb added): 0.8 | Off-Flavor Intensity ([5]; 10 ppb added): 2.9 | Masking Component Intensity ([5]; 10 ppm added): 2.4 | Off-Flavor Intensity ([5]; 10 ppm added): 2.0 | Masking Component Intensity ([5]; 50 ppm added): 3.5 | Off-Flavor Intensity ([5]; 50 ppm added): 1.5 | Masking Component Intensity ([5]; 100 ppb added): 1.0 | Off-Flavor Intensity ([5]; 100 ppb added): 2.8 | Masking Component Intensity ([5]; 100 ppt added): 0.3 | Off-Flavor Intensity ([5]; 100 ppt added): 3.5 | Masking Component Intensity ([6]; 1 ppb added): 0.3 | Off-Flavor Intensity ([6]; 1 ppb added): 2.9 | Masking Component Intensity ([6]; 1 ppm added): 1.4 | Off-Flavor Intensity ([6]; 1 ppm added): 2.1 | Masking Component Intensity ([6]; 5 ppm added): 1.8 | Off-Flavor Intensity ([6]; 5 ppm added): 1.8 | Masking Component Intensity ([6]; 10 ppb added): 0.6 | Off-Flavor Intensity ([6]; 10 ppb added): 2.9 | Masking Component Intensity ([6]; 10 ppm added): 2.5 | Off-Flavor Intensity ([6]; 10 ppm added): 1.6 | Masking Component Intensity ([6]; 50 ppm added): 3.6 | Off-Flavor Intensity ([6]; 50 ppm added): 1.3 | Masking Component Intensity ([6]; 100 ppb added): 0.9 | Off-Flavor Intensity ([6]; 100 ppb added): 2.5 | Masking Component Intensity ([6]; 100 ppt added): 0.1 | Off-Flavor Intensity ([6]; 100 ppt added): 3.0 | Masking Component Intensity ([7]; 1 ppm added): 0.4 | Off-Flavor Intensity ([7]; 1 ppm added): 2.4 | Masking Component Intensity ([7]; 10 ppm added): 1.1 | Off-Flavor Intensity ([7]; 10 ppm added): 1.9 | Masking Component Intensity ([7]; 50 ppm added): 2.3 | Off-Flavor Intensity ([7]; 50 ppm added): 1.5 | Masking Component Intensity ([7]; 100 ppb added): 0.1 | Off-Flavor Intensity ([7]; 100 ppb added): 2.8 | Masking Component Intensity ([7]; 100 ppm added): 3.1 | Off-Flavor Intensity ([7]; 100 ppm added): 1.3 | Masking Component Intensity ([8]; 1 ppm added): 0.5 | Off-Flavor Intensity ([8]; 1 ppm added): 2.5 | Masking Component Intensity ([8]; 10 ppm added): 1.3 | Off-Flavor Intensity ([8]; 10 ppm added): 1.9 | Masking Component Intensity ([8]; 50 ppm added): 1.9 | Off-Flavor Intensity ([8]; 50 ppm added): 1.4 | Masking Component Intensity ([8]; 100 ppb added): 0.4 | Off-Flavor Intensity ([8]; 100 ppb added): 2.9 | Masking Component Intensity ([8]; 100 ppm added): 2.9 | Off-Flavor Intensity ([8]; 100 ppm added): 0.8 | concentration that masks the off-flavor and does not affect the flavor of the food and/or beverage itself, lower limit [9]: ≥ 10 ppt | concentration that masks the off-flavor and does not affect the flavor of the food and/or beverage itself, upper limit [9]: ≤ 10 ppm | concentration that masks the off-flavor and does not affect the flavor of the soymilk itself, lower limit [10]: ≥ 100 ppb | concentration that masks the off-flavor and does not affect the flavor of the soymilk itself, upper limit [10]: ≤ 100 ppm
